Patent US11066414B2, “Cot modulators and methods of use thereof” (Gilead Sciences, Inc., priority 2015, dated 2021)
Where two headings read alike, the source gives them in different places.

Assays:
TNFα = assay: Cot Monocyte TNFα Cell Based Assay
Human Cot = Human Cot (Homo sapiens (Human), UniProt P41279); assay: High Throughput Cot Biochemical Assay
[1] = Homo sapiens, Monocyte, read-out: EC50 TNF, LPS-stimulated human monocytes, TNFα
[2] = IC50 HTRF, Cot HTRF (TR-FRET) biochemical assay
[3] = Homo sapiens, Monocyte, read-out: EC50 TNF, LPS-stimulated human monocytes, TNFα TR-FRET
[4] = IC50 HTRF, Cot HTRF (TR-FRET KinEASE) biochemical assay, 400 μM ATP

Sequence of Human Cot (P41279 30-397): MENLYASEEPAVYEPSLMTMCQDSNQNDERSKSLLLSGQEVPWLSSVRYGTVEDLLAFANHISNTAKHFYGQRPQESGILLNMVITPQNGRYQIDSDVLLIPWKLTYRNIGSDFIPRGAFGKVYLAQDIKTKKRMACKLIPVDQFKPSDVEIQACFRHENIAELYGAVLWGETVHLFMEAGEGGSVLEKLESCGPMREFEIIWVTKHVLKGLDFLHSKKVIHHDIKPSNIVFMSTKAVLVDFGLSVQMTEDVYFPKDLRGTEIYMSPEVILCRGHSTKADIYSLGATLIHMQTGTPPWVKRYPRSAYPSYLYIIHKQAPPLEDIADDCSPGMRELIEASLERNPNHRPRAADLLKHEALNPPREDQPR

Row | SMILES | EC50 (TNFα; [1]) [nM] | IC50 (Human Cot; [2]) [nM] | also measured
1 | CCN1Cc2ccc([C@H](Nc3cc(Cl)c4ncc(C#N)c(Nc5ccc(F)c(Cl)c5)c4c3)c3c[nH]nn3)cc2C1 [Example 53, (S)-8-chloro-4-((3-chloro-4-fluorophenyl)amino)-6-(((2-ethylisoindolin-5-yl)(1H-1,2,3-triazol-4-yl)methyl)-amino)quinoline-3-carbonitrile] | 4020 | 81 | 
2 | CC(C)(C)CNc1c(C#N)cnc2c(Cl)cc(N[C@H](c3cn(C4(C(N)=O)CC4)nn3)c3cccc4cnccc34)cc12 [Example 561, (S)-1-(4-(((8-chloro-3-cyano-4-(neopentylamino)quinolin-6-yl)amino) (isoquinolin-5-yl)methyl)-1H-1,2,3-triazol-1-yl)cyclopropane-1-carboxamide] | 433 | 2 | 
3 | CC(C)(C)CNc1c(C#N)cnc2c(Cl)cc(N[C@H](c3cn(C4(C(F)(F)F)CC4)nn3)c3cccc4c(=O)[nH]ccc34)cc12 [Example 676, (S)-8-chloro-4-(neopentylamino)-6-(((1-oxo-1,2-dihydroisoquinolin-5-yl)(1-(1-(trifluoromethyl)cyclopropyl)-1H-1,2,3-triazol-4-yl)methyl)amino)quinoline-3-carbonitrile] | 112 | 6 | 
4 | Cc1ncsc1[C@H](Nc1cc(Cl)c2ncc(C#N)c(Nc3ccc(F)c(Cl)c3)c2c1)c1cn(C2CCN(C(C)(C)C)CC2)nn1 [Example 307, (R)-6-(((1-(1-(tert-butyl)piperidin-4-yl)-1H-1,2,3-triazol-4-yl)(4-methylthiazol-5-yl)methyl)amino)-8-chloro-4-((3-chloro-4-fluorophenyl)amino)quinoline-3-carbonitrile] | 60 | 4 | 
5 | N#Cc1cnc2c(Cl)cc(N[C@@H](c3cccnc3)c3cn(CCCN4CCCC4)nn3)cc2c1Nc1cnc(F)c(F)c1 [Example 200, (S)-8-chloro-4-((5,6-difluoropyridin-3-yl)amino)-6-((pyridin-3-yl(1-(3-(pyrrolidin-1-yl)propyl)-1H-1,2,3-triazol-4-yl)methyl)amino)quinoline-3-carbonitrile] | 558 | 7 | 
6 | CC(C)(C)CNc1c(C#N)cnc2c(Cl)cc(N[C@H](c3cn(C4CC4)nn3)c3cccc4scnc34)cc12 [Example 449, (S)-6-((benzo[d]thiazol-4-yl(1-cyclopropyl-1H-1,2,3-triazol-4-yl)methyl)amino)-8-chloro-4-(neopentylamino)quinoline-3-carbonitrile] | 407 | 19 | 
7 | Cc1nc(F)ccc1[C@H](Nc1cc(Cl)c2ncc(C#N)c(NCC(C)(C)C(F)(F)F)c2c1)c1cn(C2(C)CC2)nn1 [Example 720, (S)-8-chloro-6-(((6-fluoro-2-methylpyridin-3-yl)(1-(1-methylcyclopropyl)-1H-1,2,3-triazol-4-yl)methyl)amino)-4-((3,3,3-trifluoro-2,2-dimethylpropyl)amino)-quinoline-3-carbonitrile] | 35 | 2 | 
8 | CC(C)(C)CNc1c(C#N)cnc2c(Cl)cc(N[C@H](c3cn(C4(C#N)CC4)nn3)c3cccc4cnccc34)cc12 [Example 563, (S)-8-chloro-6-(((1-(1-cyanocyclopropyl)-1H-1,2,3-triazol-4-yl)(isoquinolin-5-yl)methyl)amino)-4-(neopentylamino)-quinoline-3-carbonitrile] | 63 | 2 | 
9 | N#Cc1cnc2c(Cl)cc(N[C@@H](c3cscn3)c3c[nH]nn3)cc2c1Nc1ccc(F)c(Cl)c1 [Example 276, (S)-8-chloro-4-((3-chloro-4-fluorophenyl)amino)-6-((thiazol-4-yl(1H-1,2,3-triazol-4-yl)methyl)amino)quinoline-3-carbonitrile] | 789 | 6 | 
10 | CC[C@@H](Nc1c(C#N)cnc2c(Cl)cc(NC(c3cn(C4CC4)nn3)c3cccnc3Cl)cc12)c1ccccc1 (stereo partly drawn) [Example 124, 8-chloro-6-(((2-chloropyridin-3-yl)(1-cyclopropyl-1H-1,2,3-triazol-4-yl)methyl-d)amino)-4-(((R)-1-phenylpropyl)amino)quinolme-3-carbonitrile] |  |  | EC50 (TNFα; read-out: EC50 TNF, LPS-stimulated human monocytes, TNFα): 376 nM; IC50 (Human Cot; read-out: IC50 HTRF, Cot HTRF (TR-FRET) biochemical assay): 8 nM
11 | CC(C)(C)n1cc([C@@H](Nc2cc(Cl)c3ncc(C#N)c(Nc4ccc(F)c(Cl)c4)c3c2)c2cocn2)nn1 [Example 310, (S)-6-(((1-(tert-butyl)-1H-1,2,3-triazol-4-yl)(oxazol-4-yl)methyl)amino)-8-chloro-4-((3-chloro-4-fluorophenyl)amino)-quinoline-3-carbonitrile] | 2340 | 40 | 
12 | N#Cc1cnc2c(Cl)cc(N[C@@H](c3ccc(F)nc3)c3c[nH]nn3)cc2c1Nc1cnc(F)c(F)c1 [Example 166, (S)-8-chloro-4-((5,6-difluoropyridin-3-yl)amino)-6-(((6-fluoropyridin-3-yl)(1H-1,2,3-triazol-4-yl)methyl)amino)quinoline-3-carbonitrile] | 1420 | 6 | 
13 | Cc1ccnc2cccc([C@H](Nc3cc(Cl)c4ncc(C#N)c(NCC(C)(C)C)c4c3)c3cn(C4(C(F)(F)F)CC4)nn3)c12 [Example 660, (S)-8-chloro-6-(((4-methylquinolin-5-yl)(1-(1-(trifluoromethyl)cyclopropyl)-1H-1,2,3-triazol-4-yl)methyl)amino)-4-(neopentylamino)quinoline-3-carbonitrile] | 839 | 43 | 
14 | Cn1cnc2c([C@H](Nc3cc(Cl)c4ncc(C#N)c(NCC(C)(C)C)c4c3)c3cn(C45CC(C4)C5)nn3)cccc2c1=O [Example 728, (S)-6-(((1-(bicyclo[1.1.1]pentan-1-yl)-1H-1,2,3-triazol-4-yl)(3-methyl-4-oxo-3,4-dihydroquinazolin-8-yl)methyl)amino)-8-chloro-4-(neopentylamino)quinoline-3-carbonitrile] | 154 | 7 | 
15 | Cn1cncc1[C@H](Nc1cc(Cl)c2ncc(C#N)c(Nc3ccc(F)c(Cl)c3)c2c1)c1cn(C2CCN(C(C)(C)C)CC2)nn1 [Example 342, (S)-6-(((1-(1-(tert-butyl)piperidin-4-yl)-1H-1,2,3-triazol-4-yl)(1-methyl-1H-imidazol-5-yl)methyl)amino)-8-chloro-4-((3-chloro-4-fluorophenyl)-amino)quinoline-3-carbonitrile] | 6090 | 38 | 
16 | Cc1ncsc1[C@H](Nc1cc(Cl)c2ncc(C#N)c(NCC(C)(C)C)c2c1)c1cn(C2(C(F)F)CC2)nn1 [Example 619, (R)-8-chloro-6-(((1-(1-(difluoromethyl)-cyclopropyl)-1H-1,2,3-triazol-4-yl)(4-methylthiazol-5-yl)methyl)amino)-4-(neopentylamino)quinoline-3-carbonitrile] | 189 | 7 | 
17 | COc1c([C@@H](Nc2cc(C#N)c3ncc(C#N)c(NCC(C)(C)C)c3c2)c2ccc(F)nc2C)nnn1C12CC(C1)C2 [Example 868, (S)-6-(((1-(bicyclo[1.1,1]pentan-1-yl)-5-methoxy-1H-1,2,3-triazol-4-yl)(6-fluoro-2-methylpyridin-3-yl)methyl)amino)-4-(neopentylamino)quinoline-3,8-dicarbonitrile] |  |  | EC50 (TNFα; [3]): 70 nM; IC50 (Human Cot; [4]): 2 nM
18 | Cc1nc(F)ccc1[C@H](Nc1cc(Cl)c2ncc(C#N)c(NCC(C)(C)C)c2c1)c1nnn(C2(C(F)F)CC2)c1I [Example 707, (S)-8-chloro-6-(((1-(1-(difluoromethyl)cyclopropyl)-5-iodo-1H-1,2,3-triazol-4-yl)(6-fluoro-2-methylpyridin-3-yl)methyl)amino)-4-(neopentylamino)quinoline-3-carbonitrile] | 230 | 16 | 
19 | N#Cc1cnc2c(Cl)cc(N[C@H](c3c[nH]nn3)c3cnccc3Cl)cc2c1Nc1cnc(F)c(F)c1 [Example 153, (S)-8-chloro-6-(((4-chloropyridin-3-yl)(1H-1,2,3-triazol-4-yl)methyl)amino)-4-((5,6-difluoropyridin-3-yl)amino)quinoline-3-carbonitrile] | 3760 | 44 | 
20 | N#Cc1cnc2c(Cl)cc(N[C@@H](c3cccnc3)c3c[nH]nn3)cc2c1Nc1ccc(Cl)c(Cl)c1F [Example 256, (S)-8-chloro-4-((3,4-dichloro-2-fluorophenyl)amino)-6-((pyridin-3-yl(1H-1,2,3-triazol-4-yl)methyl)-amino)quinoline-3-carbonitrile] | 341 | 16 | 
21 | CC(C)(C)CNc1c(C#N)cnc2c(Cl)cc(N[C@H](c3cn(C4(C(F)(F)F)CC4)nn3)c3cccc4ncsc34)cc12 [Example 417, (S)-6-((benzo[d]thiazol-7-yl(1-(1-(trifluoromethyl)cyclopropyl)-1H-1,2,3-triazol-4-yl)methyl)amino)-8-chloro-4-(neopentylamino)quinoline-3-carbonitrile] | 218 | 9 | 
22 | Cc1nc(F)ccc1[C@H](Nc1cc(C#N)c2ncc(C#N)c(NCC(C)(C)C(F)(F)F)c2c1)c1cn(C(C)(C)C)nn1 [Example 827, (S)-6-(((1-(tert-butyl)-1H-1,2,3-triazol-4-yl)(6-fluoro-2-methylpyridin-3-yl)methyl)amino)-4-((3,3,3-trifluoro-2,2-dimethylpropyl)amino)quinoline-3,8-dicarbonitrile] |  |  | EC50 (TNFα; [3]): 38 nM; IC50 (Human Cot; [4]): 2 nM
23 | CC(C)(C)CNc1c(C#N)cnc2c(Cl)cc(N[C@H](c3cn(C4(C#N)CC4)nn3)c3cccc4ncsc34)cc12 [Example 415, (S)-6-((benzo[d]thiazol-7-yl(1-(1-cyanocyclopropyl)-1H-1,2,3-triazol-4-yl)methyl)amino)-8-chloro-4-(neopentylamino)quinoline-3-carbonitrile] | 67 | 3 | 
